From US10947196B2, “Beta adrenergic agonist and methods of using the same” (CURASEN THERAPEUTICS, INC., priority 2019, dated 2021)
Where two headings read alike, the source gives them in different places.

Assays:
Type in all cases: cell-based
[1] = target: β2 adrenergic receptor (Homo sapiens (Human), UniProt P07550); test: cAMP Gs dynamic HTRF assay, β2 expressing CHO cells; conditions: B2-AR
Summary of the method: (§1)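 Intracellular cAMP quantified by Eu-donor/d2-acceptor HTRF after 30 min compound exposure at 37° C in stimulation buffer with IBMX. Concentrations ran 10 μM top, 5-fold steps, 10 points. Cell lines: 1321N1 astrocytoma and CHO expressing β1 or β2; EC50 via four-parameter fit, relative efficacy against isoproterenol.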

[2] = target: β2 adrenergic receptors in human astrocytoma cells (1321N1) (Homo sapiens (Human), UniProt P07550); test: cAMP HTRF assay in human astrocytoma cells (1321N1)
Sequence of β2 adrenergic receptors in human astrocytoma cells (1321N1) (P07550 whole entry): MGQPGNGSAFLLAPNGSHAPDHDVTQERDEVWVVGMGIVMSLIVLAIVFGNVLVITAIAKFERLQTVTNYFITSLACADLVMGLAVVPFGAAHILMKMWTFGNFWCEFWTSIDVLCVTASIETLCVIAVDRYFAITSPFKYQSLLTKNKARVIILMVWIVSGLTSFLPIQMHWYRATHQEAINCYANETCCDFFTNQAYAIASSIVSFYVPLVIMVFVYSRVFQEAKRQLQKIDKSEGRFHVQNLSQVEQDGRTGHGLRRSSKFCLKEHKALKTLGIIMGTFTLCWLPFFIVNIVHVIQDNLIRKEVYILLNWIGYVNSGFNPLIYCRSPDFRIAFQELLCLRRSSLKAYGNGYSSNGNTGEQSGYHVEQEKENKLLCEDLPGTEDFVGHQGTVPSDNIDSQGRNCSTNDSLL
Description: cAMP homogeneous time-resolved fluorescence (HTRF). Compound efficacy was determined using the cAMP Gs dynamic HTRF assay (Cisbio, catalog #62AM4PEC) largely following the manufacturer's instructions, also detailed below.
Compound preparation. […] Standard serial dilution curves were 10-point, 5-fold dilutions starting from a highest concentration of 10 μM. […] Assay plates were centrifuged at 500×g for 10 seconds. Compounds and IBMX were prepared at 2× final dose to compensate for addition of cells.
Cell preparation. 1× stimulation buffer, washing PBS (Dulbecco's phosphate-buffered saline, −Mg −Ca; Caisson Labs, catalog #PBL01), assay PBS (Dulbecco's phosphate-buffered saline, +Mg, +Ca; Caisson Labs, catalog #PBL02) and Versene (0.02% EDTA disodium salt solution in PBS without calcium or magnesium; Caisson Labs, catalog #EDL01) were pre-warmed to 37° C. Cells expressing beta-adrenergic receptor were washed in washing PBS to remove growth medium and then released from the surface by incubating with Versene for 5-10 minutes at 37° C. Cells were harvested using assay PBS, counted manually by hemocytometer or by an automated cell counter, pelleted by centrifugation (200×g, 5 minutes) and resuspended in 37° C. 1× stimulation buffer to a final density of 1.5×10^6 cells/mL. 5 μL of the suspended cell solution (7500 cell total) were added to all wells of the 384 well assay plate, the assay plate was covered with an Axygen® plate seal (Corning PCR-SP) and incubated in a humidified 37° C. environment supplemented with 5% CO2 for 30 minutes.
HTRF reagent addition, reading and data analysis. After 30 minutes of cell stimulation with test compound, the assay plates were centrifuged at 500×g for 10 seconds, and incubation was stopped with the addition of 5 μL cAMP-D2 acceptor, diluted 1:21 in detection and lysis buffer 2 (Cisbio 62CL2FDF) was added to all cells. Subsequently, 5 μL Anti-cAMP-Eu Donor, diluted 1:21 in detection and lysis buffer 2, was added to cells. Plates were sealed and reactions gently ‘vortexed’ at 900 rpm on a Heidolph Titramax 1000 for at least 30 minutes at room temperature. Plates were centrifuged again at 500×g for 10 seconds, and HTRF was measured using a Tecan Spark plate reader at 50 flashes per well. […] Potency estimates (EC50) were derived from the four-parameter nonlinear regression of the concentration-effect curve and an estimate of relative efficacy was determined by comparing the magnitude of the test compound HTRF signal window (min−max dose) with the signal window of the full agonist control, isoproterenol.

[3] = target: B3-AR (Homo sapiens (Human), UniProt P13945); test: cAMP potency assay, B3-AR expressing CHO-K1 cells
Sequence of B3-AR (P13945 whole entry, species assumed): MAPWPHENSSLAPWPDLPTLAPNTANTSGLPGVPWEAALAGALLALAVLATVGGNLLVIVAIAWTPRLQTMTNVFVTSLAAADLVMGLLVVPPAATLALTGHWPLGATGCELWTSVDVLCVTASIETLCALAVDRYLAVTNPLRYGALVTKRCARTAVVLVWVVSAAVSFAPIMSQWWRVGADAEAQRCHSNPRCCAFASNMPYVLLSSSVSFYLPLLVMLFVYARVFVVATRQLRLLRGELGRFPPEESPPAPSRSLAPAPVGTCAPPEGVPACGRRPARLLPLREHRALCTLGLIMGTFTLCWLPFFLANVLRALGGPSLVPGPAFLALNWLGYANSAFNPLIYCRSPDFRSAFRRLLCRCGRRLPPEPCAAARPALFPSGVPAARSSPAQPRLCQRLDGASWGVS

[4] = target: β1-adrenergic receptor (Homo sapiens (Human), UniProt P08588); test: cAMP Gs dynamic HTRF assay, β1 expressing CHO cells; conditions: B1-AR
Sequence of β1-adrenergic receptor (P08588 whole entry, species assumed): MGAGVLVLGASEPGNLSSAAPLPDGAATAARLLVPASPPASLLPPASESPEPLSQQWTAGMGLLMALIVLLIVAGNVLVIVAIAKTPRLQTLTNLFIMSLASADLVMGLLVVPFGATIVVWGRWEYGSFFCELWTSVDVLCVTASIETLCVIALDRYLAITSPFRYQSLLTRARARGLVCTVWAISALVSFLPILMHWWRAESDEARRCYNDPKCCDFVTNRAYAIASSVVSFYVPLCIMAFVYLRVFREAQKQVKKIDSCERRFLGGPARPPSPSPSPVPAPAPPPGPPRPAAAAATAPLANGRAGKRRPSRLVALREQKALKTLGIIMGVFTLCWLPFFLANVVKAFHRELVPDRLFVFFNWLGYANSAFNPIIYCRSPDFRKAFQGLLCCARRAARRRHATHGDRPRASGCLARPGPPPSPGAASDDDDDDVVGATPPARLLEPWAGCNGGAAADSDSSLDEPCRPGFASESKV
Summary of the method: as §1

[5] = CHO-K1 (HitHunter), read-out: Average pEC50 [Receptor subtype: B2-AR, Cell type: CHO-K1 (HitHunter)] (converted)
[6] = CHO-K cells, read-out: Average EC50 [Receptor subtype: B2-AR, Cell type: CHO-K]
[7] = Endogenous receptor, 1321N1 cells, read-out: Average pEC50 [Receptor subtype: Endogenous, Cell type: 1321N1] (converted)
[8] = read-out: Average pEC50 [Receptor subtype: B3-AR, Cell type: CHO-K1] (converted)
[9] = CHO-K1 (HitHunter), read-out: Average pEC50 [Receptor subtype: B1-AR, Cell type: CHO-K1 (HitHunter)] (converted)
[10] = CHO-K cells, read-out: Average EC50 [Receptor subtype: B1-AR, Cell type: CHO-K]
[11] = Endogenous receptor, 1321N1 cells
[12] = Endogenous receptor, 1321N1 cells, read-out: Average EC50 [Receptor subtype: Endogenous, Cell type: 1321N1]
[13] = read-out: Average EC50 [Receptor subtype: B3-AR, Cell type: CHO-K1]

Sequence of β2 adrenergic receptor (P07550 whole entry, species assumed): as the sequence (P07550 whole entry) above

| SMILES | EC50 [1, 5] [nM] | EC50 [1, 6] [nM] | EC50 [2, 7] [nM] | EC50 [3, 8] [nM] | EC50 [4, 9] [nM] | EC50 [4, 10] [nM] | further results |
| --- | --- | --- | --- | --- | --- | --- | --- |
| Cc1ccc([C@@H](O)CNC(C)(C)C)nc1C#N [Compound 03-8] | 100 to 1000 | 100 to 1000 | > 1000 | > 1000 | > 1000 | > 1000 |  |
| Cc1ccc([C@H](O)CNC(C)(C)C)nc1C#N [Compound 03-9] | < 10 | < 10 | 10 to 100 | 100 to 1000 | 10 to 100 | 10 to 100 |  |
| CC(C)NC[C@H](O)c1cccc(C2CC2)n1 [Compound 03-10] | < 10 | < 10 |  |  | 10 to 100 | 10 to 100 | Average pEC50 [Receptor subtype: Endogenous; Cell type: 1321N1] [2, 11]: B (B = 8-7); EC50 [2, 12]: 10 to 100 nM; Average pEC50 [Receptor subtype: B3-AR; Cell type: CHO-K1] [3]: D (D < 6); EC50 [3, 13]: > 1000 nM |
| CC1(NC[C@H](O)c2cccc(C(F)(F)F)n2)CCC1 [Compound 03-11] | < 10 | < 10 | 100 to 1000 | > 1000 | 10 to 100 | 10 to 100 |  |
| CC1(NC[C@H](O)c2cccc(C(F)(F)F)n2)CC1 [Compound 03-14] | 10 to 100 | 10 to 100 | 100 to 1000 | > 1000 | 10 to 100 | 10 to 100 |  |
| COc1ccc(C[C@@H](C)NC[C@H](O)c2cccc(C(F)(F)F)n2)cc1 [Compound 03-15] | < 10 | < 10 | < 10 | 100 to 1000 | < 10 | < 10 |  |
| Cc1cc([C@@H](O)CNC(C)(C)C)nc(C(F)(F)F)c1 [Compound 03-19] | 10 to 100 | 10 to 100 | 100 to 1000 | > 1000 | 100 to 1000 | 100 to 1000 |  |
| O[C@@H](CNC1Cc2ccccc2C1)c1cccc(C(F)(F)F)n1 [Compound 03-21] | 10 to 100 | 10 to 100 | 10 to 100 | > 1000 | 100 to 1000 | 100 to 1000 |  |
| O[C@@H](CNC1CCC1)c1cccc(C(F)(F)F)n1 [Compound 03-33] | < 10 | < 10 | 10 to 100 | > 1000 |  | < 10 | Average pEC50 [Receptor subtype: B1-AR; Cell type: CHO-K1 (HitHunter)] ([4]; CHO-K1 (HitHunter)): A (A > 8) |
| CC(C)NC[C@H](O)c1cccc(C(F)(F)F)n1 [Compound 03-35] | 10 to 100 | 10 to 100 | 10 to 100 | > 1000 | < 10 | < 10 |  |
| CC(C)(C)NC[C@H](O)c1cccc(OC(F)(F)F)n1 [Compound 03-37] | < 10 | < 10 | < 10 | 100 to 1000 | 10 to 100 | 10 to 100 |  |
| CC(C)(C)NC[C@H](O)c1cncc(C(F)(F)F)n1 [Compound 03-38] | 10 to 100 | 10 to 100 |  | > 1000 |  | 100 to 1000 | Average pEC50 [Receptor subtype: Endogenous; Cell type: 1321N1] [2, 11]: C (C = <7-6); EC50 [2, 12]: 100 to 1000 nM; EC50 [3, 13]: > 1000 nM; Average pEC50 [Receptor subtype: B1-AR; Cell type: CHO-K1 (HitHunter)] ([4]; CHO-K1 (HitHunter)): C (C = <7-6) |
| CC(C)(C)NC[C@H](O)c1cccc(C(F)F)n1 [Compound 03-44] | 10 to 100 | 10 to 100 |  |  | 10 to 100 | 10 to 100 | Average pEC50 [Receptor subtype: Endogenous; Cell type: 1321N1] [2, 11]: C (C = <7-6); EC50 [2, 12]: 100 to 1000 nM; Average pEC50 [Receptor subtype: B3-AR; Cell type: CHO-K1] [3]: D (D < 6); EC50 [3, 13]: > 1000 nM |
| CC(C)(C)NC[C@H](O)c1ccnc(C(F)(F)F)n1 [Compound 03-45] | 100 to 1000 | 100 to 1000 |  |  | 10 to 100 | 10 to 100 | EC50 [2, 12]: < 10 nM; EC50 [3, 13]: < 10 nM |
| [2H]C([2H])([2H])C(NCC(O)c1cccc(C(F)(F)F)n1)(C([2H])([2H])[2H])C([2H])([2H])[2H] (stereo not drawn) [Compound 03-49] |  | 100 to 1000 |  |  | > 1000 | > 1000 | EC50 [2, 12]: > 1000 nM; EC50 [3, 13]: > 1000 nM |
| CCc1ncccc1[C@@H](O)CNC(C)(C)C [Compound 03-52] | 100 to 1000 |  | > 1000 | > 1000 | > 1000 |  |  |
| CC(C)(C)NC[C@H](O)c1cccc(NC2CCC2)n1 [Compound 03-190] | < 10 |  | < 10 |  | 10 to 100 |  |  |
| CC(C)(C)NC[C@H](O)c1cccc(NC2CCCC2)n1 [Compound 03-191] | < 10 |  | < 10 |  | 10 to 100 |  |  |

| SMILES | EC50 [1, 5] [nM] | EC50 [1, 6] [nM] | EC50 [2, 7] [nM] | EC50 [3, 8] [nM] | EC50 [4, 9] [nM] | EC50 [4, 10] [nM] | further results |
| --- | --- | --- | --- | --- | --- | --- | --- |
| CC(C)Nc1cccc([C@@H](O)CNC(C)(C)C)n1 [Compound 03-192] | < 10 |  | 10 to 100 |  | 10 to 100 |  |  |
| CC(C)(C)NC[C@H](O)c1cccc(Nc2ccccc2)n1 [Compound 03-193] | < 10 |  | < 10 |  | < 10 |  |  |
| CC(C)(C)NC[C@H](O)c1cccc(Oc2ccccc2)n1 [Compound 03-195] | 10 to 100 |  | 10 to 100 |  | 100 to 1000 |  |  |
| CC(C)(C)NC[C@H](O)c1cccc(C2=CCCC2)n1 [Compound 03-197] | < 10 |  | < 10 |  | 10 to 100 |  |  |
| CC(C)(C)NC[C@H](O)c1cccc(C(C)(C)C)n1 [Compound 03-209] | < 10 |  | < 10 |  | < 10 |  |  |
| Cn1cc(-c2cccc([C@@H](O)CNC(C)(C)C)n2)cn1 [Compound 03-215] | < 10 |  | 10 to 100 |  | 100 to 1000 |  |  |
| CC(C)(C)NC[C@@H](O)c1cccc(-n2ccnc2)n1 [Compound 03-228] | < 10 |  | < 10 |  | 10 to 100 |  |  |
| CC(C)(C)NC[C@@H](O)c1cccc(Cl)n1 [Compound 03-230] | 10 to 100 |  | 100 to 1000 |  | 10 to 100 |  |  |
| CC(C)(C)NC[C@H](O)c1cccc(C2CCCC2)n1 [Compound 03-237] | < 10 |  | < 10 |  | 10 to 100 |  |  |
| C#Cc1cccc([C@H](O)CNC(C)(C)C)n1 [Compound 03-238] | 10 to 100 |  | 100 to 1000 |  | 100 to 1000 |  |  |
| C=CCc1ncccc1[C@@H](O)CNC(C)(C)C [Compound 03-243] | 10 to 100 |  | 100 to 1000 |  | > 1000 |  |  |
| Cc1ccc([C@@H](O)CNC(C)(C)C)cn1 [Compound 03-248] | 10 to 100 |  | 10 to 100 |  | 10 to 100 |  |  |
| COc1ccc(C[C@@H](C)NC[C@H](O)c2ccc(C)nc2)cc1 [Compound 03-249] | < 10 |  | < 10 |  | < 10 |  |  |
| COc1ccc(C[C@@H](C)NC[C@H](O)c2ccc(OC)nc2C)cc1 [Compound 03-253] |  |  |  |  |  |  | EC50 ([1]; Average pEC50 [Receptor subtype: B2-AR, Cell type: CHO-K1 (HitHunter)], CHO-K1 (HitHunter)): 10 to 100 nM; EC50 [2]: 100 to 1000 nM; EC50 ([4]; Average pEC50 [Receptor subtype: B1-AR, Cell type: CHO-K1 (HitHunter)], CHO-K1 (HitHunter)): > 1000 nM |
| COc1ccc(C[C@@H](C)NC[C@H](O)c2cccc(OC(F)(F)F)n2)cc1 [Compound 03-257] | < 10 |  | < 10 |  | 10 to 100 |  |  |
| Cc1ncc(Cl)cc1[C@@H](O)CNC(C)(C)C [Compound 03-267] | 10 to 100 |  | 100 to 1000 |  | 100 to 1000 |  |  |
| CC(C)(C)NC[C@H](O)c1cccc(NC2CC(F)C2)n1 (stereo partly drawn) [Compound 03-272] | < 10 |  | < 10 |  | < 10 |  |  |
